Target: T1, WT hSLACK (Homo sapiens, UniProt Q5JUK3)
T1 construct: host or cells: CHO-K1
T1 sequence (Q5JUK3 1-1235 isoform Q5JUK3-3): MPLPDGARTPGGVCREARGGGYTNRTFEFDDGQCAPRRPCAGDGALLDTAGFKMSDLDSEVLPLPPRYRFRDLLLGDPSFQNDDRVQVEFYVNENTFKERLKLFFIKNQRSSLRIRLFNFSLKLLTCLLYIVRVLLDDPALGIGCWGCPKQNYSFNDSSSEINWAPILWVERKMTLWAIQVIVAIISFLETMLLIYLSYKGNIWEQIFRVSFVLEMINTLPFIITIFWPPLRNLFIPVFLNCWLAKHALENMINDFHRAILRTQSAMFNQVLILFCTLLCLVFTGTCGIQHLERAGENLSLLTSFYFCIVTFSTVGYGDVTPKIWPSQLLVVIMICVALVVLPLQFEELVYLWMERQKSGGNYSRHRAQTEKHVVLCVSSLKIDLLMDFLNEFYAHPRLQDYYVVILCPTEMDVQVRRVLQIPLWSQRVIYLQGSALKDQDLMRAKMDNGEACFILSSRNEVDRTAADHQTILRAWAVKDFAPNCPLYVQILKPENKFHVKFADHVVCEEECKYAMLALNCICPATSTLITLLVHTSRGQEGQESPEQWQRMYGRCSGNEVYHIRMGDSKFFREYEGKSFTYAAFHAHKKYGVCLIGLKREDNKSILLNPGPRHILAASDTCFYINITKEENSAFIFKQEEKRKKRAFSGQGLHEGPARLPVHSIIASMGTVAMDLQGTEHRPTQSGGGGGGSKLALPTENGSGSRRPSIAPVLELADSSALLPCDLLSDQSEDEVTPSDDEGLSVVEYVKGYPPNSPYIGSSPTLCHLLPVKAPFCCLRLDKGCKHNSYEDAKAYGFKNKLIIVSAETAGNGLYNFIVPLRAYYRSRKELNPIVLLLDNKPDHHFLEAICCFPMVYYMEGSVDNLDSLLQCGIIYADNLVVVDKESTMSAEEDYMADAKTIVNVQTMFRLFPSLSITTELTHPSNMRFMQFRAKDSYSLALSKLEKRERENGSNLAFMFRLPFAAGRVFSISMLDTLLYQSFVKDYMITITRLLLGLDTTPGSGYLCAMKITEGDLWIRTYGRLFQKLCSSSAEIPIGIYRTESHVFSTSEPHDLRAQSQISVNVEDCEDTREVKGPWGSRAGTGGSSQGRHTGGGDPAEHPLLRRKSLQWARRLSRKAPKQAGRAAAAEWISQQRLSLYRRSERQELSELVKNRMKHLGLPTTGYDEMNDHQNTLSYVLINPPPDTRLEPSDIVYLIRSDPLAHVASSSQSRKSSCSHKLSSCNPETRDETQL
Assay: Whole-cell automated patch-clamp (APC) in CHO cells stably expressing WT hSLACK
Assay type: cell-based
Conditions: for SLACK Imax: maximum inhibition at 30 µM test compound standardized to VU0606170 (set at 100%), WT hSLACK; for IC50: whole-cell APC, CHO cells stably expressing WT hSLACK, averages n ≥ 3, read-out: SLACK IC50
Description: All new analogs were tested in our APC assay using CHO cells stably expressing WT SLACK using a concentration-response format with concentrations ranging from 0.125 to 30 μM in half-log steps and a minimum of three cells (replicates) per concentration series. […] Still, there were some notable results. For example, substitution at the 4-position was largely unfavorable regardless of the nature of the substituent (21, 24, 27, 30, and 33) apart from the 4-fluoro analog 18. […] As the trifluoromethyl group is similar in electronegativity to chlorine, but larger than both methyl and chlorine, perhaps the steric bulk of the trifluoromethyl is to blame for the poor potency of these analogs. With the exception of the fluoro (16–18) and cyano (28–30) analogs, substitution at the 3-position was favorable for SLACK activity, with 3-methoxy analog 32 standing out in this set.
Stably transfected monoclonal HEK293 cell lines expressing Slick, Maxi-K α1/β3, Maxi-K α1/β4, CaV3.2, GIRK 1/2, KV2.1, KV7.2, NaV1.7, and TASK-1 were generated as previously described. Stably transfected monoclonal HEK293 cell lines expressing hERG were generated as previously described. CHO-K1 cells expressing human Slack and disease-associated human Slack mutations, G288S and A934T, were generated by transfecting a PiggyBac TRE mammalian expression vector (VectorBuilder, Chicago, IL, USA) containing KCNT1. FuGENE 6 (Promega, Madison, WI, USA) transfection reagent and protocol, together with Opti-MEM (Thermo Fisher Scientific, Walkham, MA, USA), were utilized.
Automated patch-clamp recording was performed with a SyncroPatch 768 PE system (Nanion, Munich, Germany) as previously described. Whole-cell recordings were performed at room temperature. Cells were harvested by first washing with PBS without Mg^2+ or Ca^2+ (Gibco, Billings, MT, USA) to remove cell culture media, followed by dissociation with TryPLE (Gibco, Billings, MT, USA). Cells were then resuspended and diluted to 100,000 cells/mL in external solution. External solution contained 105 mM NaCl, 4 mM KCl, 1 mM MgCl2, 5 mM CaCl2, 10 mM HEPES, and 40 mM N-Methyl-D-glucamine chloride, titrated to pH of 7.4 and osmolarity of 300 mOsm/kg; internal solution contained 70 mM NaCl, 70 mM KF, 10 mM KCl, 5 mM EGTA, and 5 mM HEPES, titrated to a pH of 7.2 and osmolarity of 295 mOsm/kg.
The APC protocol was set as follows: Cells were held at a […] of −80 mV for 100 ms, then a ramp protocol was performed from −100 mV to 80 mV at 0.4 mV/ms, followed by holding the cell at −80 mV for another 100 ms, then steps were performed at −20 mV, 0 mV, +20 mV, +40 mV, and +60 mV for 100 ms of each step. Whole-cell currents were measured at 0 mV and normalized to current after external buffer addition. […] To obtain the concentration-response relationship graphs and IC50 values, we take the median value of the last 7 current amplitude values obtained for each set of data points collected for a given concentration at a particular step.

Structure (SMILES) | SLACK Imax [%] | IC50 [nM]
COc1cccc(Cn2c(=O)c3c(nc(N(C)Cc4ccccc4)n3C)n(C)c2=O)c1 [Analog 32] | 100 | 800
CN(Cc1cccc(F)c1)c1nc2c(c(=O)n(Cc3ccccc3)c(=O)n2C)n1C [Analog 48] | 100 | 890
CCCCN(Cc1ccccc1)c1nc2c(c(=O)n(Cc3ccccc3)c(=O)n2C)n1C [Analog 70] | 100 | 940
Cn1c(N(Cc2ccccc2)CC2CC2)nc2c1c(=O)n(Cc1ccccc1)c(=O)n2C [Analog 71] | 100 | 980
CCCCN(Cc1cccc(F)c1)c1nc2c(c(=O)n(Cc3cccc(OC)c3)c(=O)n2C)n1C [Analog 78] | – | 1200
COc1cccc(Cn2c(=O)c3c(nc(N(Cc4cccc(F)c4)CC4CC4)n3C)n(C)c2=O)c1 [Analog 79] | – | 1000
CCCCN(Cc1ccc(F)cc1)c1nc2c(c(=O)n(Cc3cccc(OC)c3)c(=O)n2C)n1C [Analog 80] | – | 700
COc1cccc(Cn2c(=O)c3c(nc(N(Cc4ccc(F)cc4)CC4CC4)n3C)n(C)c2=O)c1 [Analog 81] | – | 1500
